Assay results published in patent US20060269924A1, “Modulation of telomere-initiated cell signaling” (TRUSTEES OF BOSTON UNIVERSITY, priority 2003, published 2006).
{P} = phosphate

Legend:
S91 mouse melanoma cells = assay: Melanin content of S91 melanoma cells; type: cell-based; details: 40 μM, 6 days
Description: Cultures of S91 mouse melanoma cells (100,000 cells/38 cm^2) were treated with 100 μM pTpT or phosphorothioate pTpT (pTspT) (FIG. 4) or 40 μM 11mer-1 or the phosphorothioate 11mer-1 (11mer-1-S) (FIG. 5) for 6 days and were then collected, counted and assayed for melanin content.
Duplicate cultures of S91 cells (100,000 cells/39 cm^2) were either sham-irradiated or irradiated with 5 mJ/cm^2 solar-simulated light from a 1 kW xenon arc solar-simulator (XMN 1000-21, Optical Radiation, Azuza, Calif.) metered at 285±5 nm using a research radiometer (model IL1700A, International Light, Newburyport, Mass.). Two sham-irradiated plates were then supplemented with 100 μM pTspT and two irradiated cultures were similarly treated with pTspT. After one week, cells were collected, counted and analyzed for melanin content by dissolving the cell pellets in 1 N NaOH and measuring the optical density at 475 nm. […] However, this response was blocked by the addition of pTspT (FIG. 6). In addition, the constitutive pigmentation of these cells was reduced by the pTspT in the sham-irradiated cultures, similar to the data presented in FIGS. 4 and 5.

[1] = tested on: phospho-p53 serine 15, phospho-p95 serine 343; assay: T-oligo response in fibroblasts with Mre11 siRNA knockdown, Western blot and densitometry; type: cell-based, human; details: fibroblasts with significantly reduced MRE11 levels (Mre11 siRNA), 48 hours
Description: Normal human neonatal fibroblasts were treated with either 10 pmoles Mre11 siRNA or 10 pmoles control (no homology found in expressed human sequences). Cultures dishes were approximately 60% confluent on the day of siRNA transfection. Transfections were carried out using Lipofectamine 2000 (Invitrogen, Carlsbad, Calif.) following the protocol supplied by the manufacturer. The transfection cocktail was applied to the cells for 5 hours and then replaced with fresh medium alone. The next day, the transfection protocol was repeated. The following day, duplicate cultures were treated with the T-oligo or with diluent alone as a negative control. Cells were then collected 48 hours later and the protein analyzed by Western blot using antibodies specific for phospho-p95 serine 343 (Cell Signaling Technology, Beverly, Mass.), Mre11 (GeneTex, San Antonio, Tex.), phosphor-p53 serine 15 (Cell Signaling Technology) and total p53 (Oncogene, San Diego, Calif.) (FIG. 9). Hela cell lysate was used as a positive control for Mre11. Normal fibroblasts exposed to 10 Gy IR or sham irradiated and collected after one hour served as positive controls for p53 and p95/Nbs1 phosphorylation. The autoradiographs were analyzed by densitometry and the values for the T-oligo samples are expressed relative to the values for the diluent-treated samples (FIG. 10 and FIG. 11).

R2F fibroblasts = assay: SA-β-Gal staining, R2F fibroblasts; type: cell-based, human; details: 40 μM, 1 week
Description: FIG. 12a: Immunoblot analysis of p53DD and cdk4^R24C expression. Cells were collected for protein analysis by western blot using 30 μg total protein and probed for total p53 and cdk4. Lanes 1, 2, 3 and 4 contain protein samples from R2F, R2F (p53DD), R2F (cdk4^R24C) and R2F (p53DD/cdk4^R24C) fibroblasts, respective. β-actin was used as a loading control. FIG. 12b: Contribution of p53 and pRb pathways to T-oligo-induced SA-β-Gal activity. R2F fibroblasts and derived transductants were treated with diluent or 40 μM T-oligo for one week and then assayed for SA-β-Gal activity. FIG. 12c: Quantitative analysis of SA-β-Gal positive cells. Cells expressing SA-β-Gal activity were counted and presented as percentage of total cells in the cultures. Averages and standard deviations were calculated from 3 representative fields from each of 3 independent experiments.
Cells were treated once with diluent alone, 40 μM T-oligo or 40 μM complementary oligo for 1 week without re-feeding. Cells were then fixed for 3-5 minutes in 2% formaldehyde/0.2% glutaraldehyde and incubated at 37° C. […]
Cells were treated with either diluent or 40 μM T-oligo for 1 week and then assessed for SA-β-Gal activity. […]

Saos-2 cells = assay: FACS analysis of Saos-2 cells; type: cell-based; details: Saos-2 (telomerase negative), 40 μM, 48 hours
Description: (§1) FIG. 18a: FACS profiles from one representative experiment of three with the percentage and standard deviations of cells in each phase of the cell cycle was calculated from triplicate cultures of each condition. FIG. 18b: Western blots with an antibody specific for phospho-p95/Nbs1. Lanes 1, 2 and 3 contained protein from cells treated with diluent, 11mer-1 or 11mer-2, respectively. Control cells (3 hours) were irradiated with 10 Gy of IR (+), or were sham irradiated (−).
(§2) Saos-2 cells are an osteosarcoma cell line that is reportedly telomerase negative and maintain telomeres by the ALT pathway. Saos-2 cell lines were treated with either diluent or 40 μM of the indicated oligonucleotide and cells were collected after 48 hours for FACS analysis. […] The results that the effect of the T-oligo in the telomerase negative cells is identical to the response in telomerase positive malignant cell lines.

p95/Nbs1 phosphorylation = assay: Western blot for phospho-p95/Nbs1 in Saos-2 cells; type: cell-based; details: 40 μM
Description: as §1, §2

p53 phosphoserine 37 = assay: Western blot for p53 phosphoserine 37; type: cell-based; details: normal neonatal fibroblasts, 40 μM
Description: Western blot analysis was performed on normal neonatal cells using a antibody specific for p53 phosphoserine 37 after being treated with either diluent or 40 μM for the indicated times.
Normal neonatal fibroblasts were treated with either diluent or 40 μM (11mer-1) for 4, 6, 8, 19, 24 and 48 hours and then collected for Western blot analysis using an antibody specific for p53 phosphoserine 37. Sham and IR-irradiated (10 Gy) fibroblasts were used used as negative and positive controls, respectively.

## pGTTAGGGTTAG (DNA, 5' {P}, backbone not given here; listed as Homo sapiens) [Oligonucleotide 11mer-1]
S91 mouse melanoma cells
  melanogenesis (melanin content): stimulated melanogenesis
[1]
  phospho-p53 response to T-oligo: reduced
  phospho-p95/Nbs1 response to T-oligo: absent
R2F fibroblasts
  SA-β-Gal positive cells: 65±7%
Saos-2 cells
  S phase arrest: causes an S phase arrest
p95/Nbs1 phosphorylation
  phosphorylation of p95/Nbs1: induced phosphorylation
p53 phosphoserine 37; 8 hours
  p53 serine 37 phosphorylation (band intensity vs diluent): detected
p53 phosphoserine 37; 48 hours
  p53 serine 37 phosphorylation (band intensity vs diluent): very prominent
